From patent publication US7262192B2, “Substituted pyrazolo[4,3-d]pyrimidines and their use as PDE-5 inhibitors” (Pfizer Inc., priority 2003, dated 2007)
pIC50: −log10 of the molar value.

target: cGMP-specific PDE-5 (UniProt O76074); assay: PDE-5 inhibition, batch method or scintillation proximity assay; format: biochemical, human; conditions: activity against PDE-5; representative preferred compounds
Text: The compounds of the invention are inhibitors of cyclic guanylate monophosphate (cGMP)-specific phosphodiesterase type 5 (PDE-5 inhibitors).
The required PDE enzymes can be isolated from a variety of sources, including human corpus cavernosum, human and rabbit platelets, human cardiac ventricle, human skeletal muscle and bovine retina, essentially by a modification of the method of Thompson, W J et al.; Biochemistry 18(23), 5228-5237, 1979, as described by Ballard S A et al.; J. Urology 159(6), 2164-2171, 1998. In particular, cGMP-specific PDE-5 and cGMP-inhibited cAMP PDE-3 can be obtained from human corpus cavernosum tissue, human platelets or rabbit platelets; cGMP-stimulated PDE-2 was obtained from human corpus cavernosum; calcium/calmodulin (Ca/CAM)-dependent PDE-1 from human cardiac ventricle; cAMP-specific PDE-4 from human skeletal muscle; and photoreceptor PDE-6 from bovine retina. Phosphodiesterases 7-11 can be generated from full length human recombinant clones transfected into SF9 cells.
Assays can be performed either using a modification of the “batch” method of Thompson W J and Appleman M M; Biochemistry 10(2),311-316, 1971, essentially as described by Ballard S A et al.; J. Urology 159(6), 2164-2171, 1998, or using a scintillation proximity assay for the direct detection of [^3H]-labelled AMP/GMP using a modification of the protocol described by Amersham plc under product code TRKQ7090/7100. In summary, for the scintillation proximity assay the effect of PDE inhibitors was investigated by assaying a fixed amount of enzyme in the presence of varying inhibitor concentrations and low substrate, (cGMP or cAMP in a 3:1 ratio unlabelled to [^3H]-labeled at a concentration of ˜⅓ Km or less) such that IC50≈Ki. The final assay volume was made up to 100 μL with assay buffer [20 mM Tris-HCl pH 7.4, 5 mM MgCl2, 1 mg/mL bovine serum albumin]. Reactions were initiated with enzyme, incubated for 30-60 min at 30° C. to give <30% substrate turnover and terminated with 50 μL silicate SPA beads (containing 3 mM of the respective unlabelled cyclic nucleotide for PDEs 9 and 11).

| SMILES | pIC50 |
| --- | --- |
| CCOCCn1nc(CO)c2nc(N(C)CC)nc(Nc3cc(C)ccn3)c21 [Example 181, [1-(2-Ethoxyethyl)-5-(N-ethyl-N-methylamino)-7-(4-methylpyridin-2-ylamino)-1H-pyrazolo[4,3-d]pyrimidin-3-yl]methanol] | 9.39 |
| CCOCc1nn(CCOCC(F)(F)F)c2c(Nc3cccc(C)n3)nc(N3CCNC(C)C3)nc12 (stereo not shown) [Example 255] | 8.84 |
| CCOCCn1nc(COC)c2nc(N3CCN[C@H](C)C3)nc(Nc3cccc(C)n3)c21 [Example 211] | 8.57 |
| CCOCCn1nc(COC)c2nc(N(C)C)nc(Nc3cc(C)ccn3)c21 [Example 185, 1-(2-Ethoxyethyl)-3-methoxymethyl-N^5,N^5-dimethyl-N^7-(4-methylpyridin-2-yl)-1H-pyrazolo[4,3-d]pyrimidine-5,7-diamine] | 8.88 |
| CCOCCn1nc(C)c2nc(N3CC(C)NCC3C)nc(Nc3ccncn3)c21 (stereo not shown) [Example 138] | 9.48 |
| CCOCc1nn(CCOCC(F)(F)F)c2c(Nc3cc(C)ccn3)nc(N3CCNC(C)C3)nc12 (stereo not shown) [Example 256] | 8.41 |
| CCCOCCn1nc(C)c2nc(N3CCNC(C)C3)nc(Nc3ccncn3)c21 (stereo not shown) [Example 23] | 9.33 |
| CCOCCn1nc(CC)c2nc(N(C)C3CCN(C)CC3)nc(Nc3ccncn3)c21 [Example 2] | 9.30 |
| CCOCCn1nc(C)c2nc(N(C)[C@H]3CCN(C)C3)nc(Nc3ccncn3)c21 [Example 191, 1-(2-Ethoxyethyl)-N^5,3-dimethyl-N^5-[(3S)-1-methylpyrrolidin-3-yl]-N^7-pyrimidin-4-yl-1H-pyrazolo[4,3-d]pyrimidine-5,7-diamine] | 8.62 |

Now those with a higher pIC50, led by results:

| pIC50 | SMILES |
| --- | --- |
| 9.62 | CCOCCn1nc(CC)c2nc(N(C)C3CCN(C)C3)nc(Nc3cc(C)ccn3)c21 (stereo not shown) [Example 162] |
| 9.82 | CCOCCn1nc(CC)c2nc(N3CC(C)NCC3C)nc(Nc3ccncn3)c21 (stereo not shown) [Example 141] |
| 9.51 | CCOCCn1nc(C)c2nc(N3CCNC(C)C3)nc(Nc3ccncn3)c21 (stereo not shown) [Example 11] |
| 9.96 | CCOCCn1nc(CC)c2nc(N3CCNC(C)C3)nc(Nc3ccncn3)c21 (stereo not shown) [Example 15] |
